Test results taken from US20250008983A1, “COMPOSITIONS CONTAINING PEROXYACIDS TO CONTROL PATHOGEN GROWTH IN ANIMAL FEED AND RELATED METHODS” (KEMIN INDUSTRIES, INC., priority 2023, published 2025).
Values after ≈ are worked out from the molar mass of the structure shown. Values joined by “and” are separate entries in the source; they are usually repeats but may differ in a detail not shown here. Identical values can stand only once. Marks after values point to notes of the source that are not given here.

Tests used:
[1] = tested on: Salmonella enteriditis ATCC 13076; assay: DNA interaction Assay 2: treatment added to cells followed by extraction; format: cell-based; settings: 1 kg/T; two hours at 37° C.; n = 3
Protocol: (§1) Method (Assay 1: Treatment added to extracted DNA directly). One mL of cell suspension (ca. 10^8 cfu/mL in TSBYE) was harvested by centrifugation at 5000 rcf for 10 minutes. The supernatant was discarded and resuspended as detailed in the protocol provided by the supplier. DNA was extracted using the QIAamp DNA Mini kit (Cat #51304, Qiagen). The samples were incubated at 56° C. for two hours and eluted with 200 uL of nuclease-free water. The same eluent was run through the column twice to increase the DNA concentration. Extracted DNA was quantified using Quant-iT dsDNA high-sensitivity assay kit (Q33120; Thermo Fischer Scientific). Extracted DNA was subsequently treated with the different treatment groups with a final concentration of 1 kg/T (prepared in 10 mM PBS). 1.5 uL of treatment solution (prepared at 10 times higher concentration) is added to 13.5 uL of extracted DNA. The solution was mixed well and left to stand at room temperature for one hour. After one hour, the solution was diluted with nuclease-free water 10 times. DNA was subsequently quantified using Quant-iT dsDNA high-sensitivity assay kit (Q33120; Thermo Fischer Scientific). Method (Assay 2: Treatment added to cells followed by extraction). […] Extracted DNA was quantified using Quant-iT dsDNA high-sensitivity assay kit (Q33120; Thermo Fischer Scientific). […]

[2] = tested on: Escherichia coli ATCC 25922; assay: Minimum inhibitory concentration (MIC), broth microdilution; format: cell-based
Protocol: Materials and Methods. The assay was conducted to determine the minimum inhibitory concentration (MIC) of peroxy-acids against Escherichia coli ATCC 25922. E. coli was purchased from American Type Culture Collection (ATCC). The strain was stored at −80° C. in glycerol. Prior to usage, E. coli was revived by streaking a loopful of culture onto TSAYE (i.e., tryptone soya agar yeast extract (CM0131 and LP0021; Oxoid) prepared as per recommended by Oxoid) with overnight incubation at 37° C. An overnight culture of E. coli was diluted in TSBYE (i.e, tryptone soya broth yeast extract (CM0129; Oxoid) prepared as per recommended by Oxoid) to obtain a cell suspension of ca. 10^5 CFU/mL. Subsequently, 100 μL of the diluted culture was added to 100 μL of the test solutions at the needed concentrations into a microtiter plate (92096; TPP Techno Plastic Products AG). Peroxy-acids were tested at an active concentration of 25-1600 μg/mL. Subsequently, the inoculated plate was incubated at 37° C. up to 48 hours with the bacterial cell density recorded at optical density (OD) 600 nm at 24 hours interval using a microplate reader (Varioskan LUX; Thermo Fisher).

extracted Salmonella DNA = assay: DNA interaction Assay 1: treatment added to extracted DNA directly; format: biochemical; settings: 1 kg/T; one hour at room temperature; n = 3
Protocol: as §1

[3] = Stability of PPA in various diluent (peroxy value by titrimetry); format: physicochemical
Protocol: Stability of PPA in various diluent. In a separate study, the peroxy value of the mixture was estimated using the titrimetry procedure in 10 minutes and after 4 h of preparing the PPA solution with different diluents.
The peroxy acid value of PPA, when diluted with different diluents, is summarized below in Table 12.

[4] = tested on: cocktail of four freeze-dried salmonella strains; assay: Peroxypropionic acid efficacy against Salmonella in swine feed; format: cell-based, Salmonella typhimurium, senftenberg, montevideo, enteritidis; settings: for Average CFU/g feed / Log CFU/g / Total CFU: 4 h; for Total counts in CFU at 4 h (n = 5): swine mash feed, PPA with sodium phosphate buffer (9:1), ~pH 7-8, five replicate cells
Text: Swine mash feed contains a bigger particle size of corn-soy matrix compared to broiler mash feed. Thus, it could pose a challenge to expect the same antimicrobial efficacy as observed in broiler feed due to the shielding effect. Therefore, to maximize the efficacy of the peroxypropionic acid on the swine feed, an optimal droplet size of the peroxypropionic acid was required to ensure maximum distribution of the product onto the feed. Swine mash feed of 25 g was taken in five individual bags and inoculated with 10 mg cocktail of four freeze-dried salmonella strains of Salmonella typhimurium ATCC 14028, Salmonella senftenberg ATCC 43485, Salmonella montevideo ATCC 8387, and Salmonella enteritidis ATCC 13076 in such a way that the total infection in the feed was ˜2 logs. Then, the feed samples were treated with peroxypropionic acid solution (˜17% PPA, 7% H2O2) and sodium phosphate buffer premix (9:1 ratio) at 1.5 kg/T, 3 Kg/T, and 6 Kg/T. The feed was enumerated completely for Salmonella count using EB plates at 4 h after treatment. Two untreated controls, NC-A and NC-B were kept as negative controls to represent the infection in the feed.

[5] = 2.5% ammonium hydroxide, after 10 minutes
[6] = 2.5% ammonium hydroxide, after 240 minutes
[7] = 5% sodium hydroxide, after 10 minutes
[8] = 5% sodium hydroxide, after 240 minutes
[9] = Deionized Water, after 10 minutes
[10] = Deionized Water, after 240 minutes
[11] = Sodium phosphate buffer, after 10 minutes
[12] = Sodium phosphate buffer, after 240 minutes

## CCC(=O)OO [Perpropionic acid, perpropionic acid]
[1]
  DNA concentration, Average ± SD, Assay 2: 34.97 ± 4.54^a ng/uL
[2]; no increment in OD over 48 hours, 37° C.
  Minimum inhibitory concentration (μg/mL) against E. coli: 500 µg/mL (≈ 5.55 mM)
[2]; preliminary results
  MIC: 500 ppm
Extracted Salmonella DNA
  DNA concentration, Average ± SD, Assay 1: 42.8 ± 2.9^b ng/uL
[3]; 2 g PPA + 8 g 2.5% ammonium hydroxide
  pH: 6.11
[3]; 2 g PPA + 8 g 5% sodium hydroxide
  pH: 5.44
[3]; 2 g PPA + 8 g Deionized Water
  pH: 1.77
[3]; 2 g PPA + 8 g Sodium phosphate buffer
  pH: 5.34
[3]; [5]
  H2O2 (%): 1.85%
  PPA (%): 4.18%
[3]; [6]
  H2O2 (%): 2.34%
  PPA (%): 3.31%
[3]; [7]
  H2O2 (%): 1.47%
  PPA (%): 4.4%
[3]; [8]
  H2O2 (%): 1.12%
  PPA (%): 2.55%
[3]; [9]
  H2O2 (%): 1.85%
  PPA (%): 5.54%
[3]; [10]
  H2O2 (%): 1.96%
  PPA (%): 4.75%
[3]; [11]
  H2O2 (%): 1.92%
  PPA (%): 5.82%
[3]; [12]
  H2O2 (%): 1.88%
  PPA (%): 5.19%
[4]; 1.5 Kg/T
  Average CFU/g feed: 18 CFU/g feed
  Log CFU/g: 1.26 Log CFU/g
  Total CFU: 90 CFU
[4]; 3 Kg/T
  Average CFU/g feed: 0 CFU/g feed
  Log CFU/g: 0.00 Log CFU/g
  Total CFU: 0 CFU
  Total counts in CFU at 4 h (n = 5): 0 CFU
[4]; 6 Kg/T
  Average CFU/g feed: 0 CFU/g feed
  Log CFU/g: 0.00 Log CFU/g
  Total CFU: 0 CFU
  Total counts in CFU at 4 h (n = 5): 0 CFU
[4]; 1.5 Kg/T, listed as PPA
  Total counts in CFU at 4 h (n = 5): 20 CFU and 10 CFU (2×) and 50 CFU and 0 CFU
